Experimental data from patent US8796320B2, “1,3,4-Oxadiazole-2-carboxamide compound” (General Incorporated Association Pharma Valley Project …, priority 2009, dated 2014).

Key:
MDA-MB-468 = MDA-MB-468 cell growth inhibitory activity; format: cell-based; settings: Homo sapiens; compound at 20 μM; MDA-MB-468, 72 hours
Experimental: MDA-MB-468 diluted with phenol red-free DMEM/F-12 (GIBCO; 10% FBS, 20 units/ml penicillin/streptomycin) was inoculated at a concentration of 2000 cells/well to a 96-well plate (Greiner Bio-One) and cultured overnight at 37° C. in the presence of 5% CO2. Then, a test sample solution (containing 2 (v/v)% DMSO) adjusted to 10 μM was added thereto at a concentration of 10 μL/well and contacted with the cells at 37° C. for 72 hours in the presence of 5% CO2. Each well was washed three times with a medium. Then, after addition of 100 μL/well of a medium and 20 μL/well of CellTiter 96 AQueous, One Solution Reagent (Promega Corp.), the cells were incubated at 37° C. for 2 hours in the presence of 5% CO2. Absorbance at 495 nm was measured using Multiplate reader (Molecular Devices, Inc.), and the rate of inhibition of cell growth was calculated according to the following formula: Rate of inhibition of cell growth (%)=100−100×(Abschem−bkgd)/(AbsDMSO−bkgd) • Abschem: absorbance obtained by the addition of a test sample • AbsDMSO: absorbance obtained by the addition of only a solvent for test sample dissolution • bkgd: absorbance obtained by the addition of CellTiter 96 AQueous One Solution Reagent to a medium for cell culture
The test results were indicated in the rate of inhibition of cell growth by each compound at a concentration of 20 μM.

[1] = system: human lymphoma SCC-3 cells; experiment: Evaluation using human lymphoma-transplanted nude mice; format: in vivo, nude mouse; settings: 80 mg/kg orally once a day for 5 days, p < 0.05
Experimental: 1×10^6 human lymphoma SCC-3 cells (containing Matrigel) were subcutaneously transplanted to the flank part of each 6-week-old male nude mouse (BALB/cA-nu/nu, CLEA Japan, Inc.). After the transplantation, the tumor volumes [major axis (mm) and minor axis (mm)] of the SCC-3 cancer-bearing mice were measured using an electronic vernier caliper (CD-10, Mitutoyo Corp.), and tumor volumes [mm^3: (major axis)×(minor axis)^2/2] were calculated. SCC-3 cancer-bearing mice whose tumor volume reached 50 to 300 mm^3 were selected and divided based on the tumor volumes into groups each containing 5 individuals. A test compound was suspended in a 0.5% methylcellulose solution and orally administered at a dose of 0.01 mL/g body weight once a day for 5 days (Day 0 (administration initiation day) to Day 4). To a control group, none was administered. The tumor volumes of the SCC-3 cancer-bearing mice were measured every day from the initiation of test compound administration to evaluate antitumor effect. The antitumor effect was assessed by calculating T/C (%) values according to the following formula: • V: tumor volume on every assay day • V0: tumor volume on the administration initiation day (V/V0 of the test compound group)/(V/V0 of the control group)×100
Validity determination criteria for this system adopted the method of Inaba, et al. (Cancer, 1989, 64, 1577-1582).

STAT3 = STAT3 transcription inhibition test (reporter gene method); format: cell-based; settings: Homo sapiens; compound at 100 μM; STAT3 reporter HeLa stable cell line, oncostatin M 10 ng/mL, 4 hours; read-out: STAT3 transcription inhibitory activity (%)
Experimental: The inhibition of STAT3 transcription was evaluated by using STAT3 reporter HeLa stable cell line (Panomics Inc., catalog No. RC0003), a cell line for the reporter gene method, and performing the following method according to the appendix included therein.
STAT3, reporter HeLa stable cell line subcultured and maintained in a Dulbecco's modified Eagle's medium (DMEM) containing 10% fetal bovine serum, 100 units/mL penicillin, and 100 μg/mL streptomycin was inoculated at a concentration of 40000 cells/well to a 96-well plate (white) and attached to the plate by overnight incubation at 37° C. under 5% CO2. After addition of each evaluation compound adjusted to various concentrations (adjusted with a DMSO solution), the cells were precultured for 1 hour. Then, oncostatin M for activating STAT3 was added at a final concentration 10 ng/mL, and the cells were further cultured at 37° C. under 5% CO2 for 4 hours. Luciferase activity derived from the cells was determined using Steady-Glo Luciferase Assay System (Promega Corp.), and STAT3 transcriptional activity scores were calculated according to the following formula: STAT3 transcriptional activity score (%)=100×(Lchem−L0)/(LDMSO−L0) • L0: luminescence intensity obtained without stimulation with oncostatin M • Lchem: luminescence intensity obtained by the addition of a test sample • LDMSO: luminescence intensity obtained by the addition of only a solvent for dissolving a test sample
The test results were indicated in the rate of inhibition of STAT3 transcription by each compound at a concentration of 100 μM.

[2] = system: Human lymphoma SCC-3 cells; experiment: SCC-3 cell growth inhibition test (MTT method); format: cell-based; settings: 72-hour culture
Experimental: Human lymphoma SCC-3 cells purchased from Japan Health Sciences Foundation were cultured for […] at a density of 5000 cells/well in a 96-well plate with RPMI1640 (Sigma-Aldrich Corp.) containing 10% fetal bovine serum (FBS; GIBCO) as a culture medium.
Simultaneously with cell inoculation, each test compound diluted to various concentrations with an RPMI medium was added to each well. After 72-hour culture, cell growth inhibitory activity was determined by the MTT method (J. Immunol. Methods, 1993, 65, 581-593) using a microplate reader (NJ-2300, BioTek Instruments, Inc.).
The test results were indicated in a concentration (IC50) at which 50% cell growth was inhibited.

| IC50 [2] | Compound | inhibition at 20 µM (MDA-MB-468) | T/C (%) ([1]; day 18 after administration) | inhibition at 100 µM (STAT3) | T/C (%) ([1]; day 11 after administration) | T/C (%) ([1]; day 6 after administration) |
| --- | --- | --- | --- | --- | --- | --- |
| 520 nM | O=C(Nc1nnc(-c2ccco2)o1)c1cc(-c2ccccc2)nc2nc(N3CCCCC3)sc12 [Compound Ib-1, N-[5-(2-Furyl)-1,3,4-oxadiazol-2-yl]-5-phenyl-2-piperidino-7-thiazolo[4,5-b]pyridinecarboxamide] | 96% | 52% | > 100% | – | – |
| – | CC(C)(C)c1ccc(-c2cccc(C(=O)Nc3nnc(-c4ccco4)o3)c2)cc1 [Compound Ia-14, 4′-tert-Butyl-N-[5-(2-furyl)-1,3,4-oxadiazol-2-yl]-3-biphenylcarboxamide] | – | – | 57% | 57% | – |
| – | CCCCOC(=O)c1ccc(-c2cccc(C(=O)Nc3nnc(-c4ccco4)o3)c2)cc1 [Compound Ia-23, 4′-n-Butoxycarbonyl-N-[5-(2-furyl)-1,3,4-oxadiazol-2-yl]-3-biphenylcarboxamide] | – | – | – | – | 55% |
